Results taken from US12037583B2, “Compositions and methods for immunooncology” (Novartis AG, priority 2015, dated 2024).

Columns and labels:
[1] = system: TRAC; experiment: Editing of TRAC by dgRNAs in HEK cells stably expressing Cas9 (NGS); assay type: cell-based, human; conditions: dgRNA delivered to HEK cells stably expressing Cas9, target TRAC, mean of at least 3 experiments
Description: (§1) FIG. 12: Mean (n≥3) editing of CRISPR systems with dgRNAs as indicated to TRAC in HEK cells (stably expressing Cas9) or primary human CD3+ T cells (delivery of dgRNA:Cas9 RNP by electroporation).

[2] = system: TRAC locus; experiment: Genomic editing of the TRAC locus in primary human CD3+ T cells by RNP electroporation (NGS: % indels, % frameshift edits, indel pattern); assay type: cell-based; conditions: dgRNA/Cas9 RNP by electroporation, target TRAC; for mean FS edit (%): frameshift edits in primary human CD3+ T cells; for mean total % edit: primary human CD3+ T cells, mean of at least 3 experiments;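 for all read-outs here: total edit is the insertion or deletion frequency at TRAC, and the frameshift value is the share of those indels that shift the coding frame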
Description: as §1
FIG. 33C: Genomic editing of the TRAC locus resulting from human primary T cell electroporation with RNP containing the indicated gRNA targeting the TRAC locus is shown. The frequency of insertions or deletions is indicated (% indels) and the percentage of these edits that result in frameshifting of the coding sequence is shown (% frameshift edits).
Data for each experiment are the average from triplicate PCR products.

Sequence | mean % edit [1] | mean FS edit (%) [2] | mean total % edit [2]
AAAGCUGCCCUUACCUGGGC (chemistry not given here; listed as Homo sapiens) [CR000976] | 2.8% | 1.7% | 1.8%
AACAAAUGUGUCACAAAGUA (chemistry not given here; listed as Homo sapiens) [CR000966] | 65.2% | 21.0% | 22.0%
AACGAGAAUCAUCUGCCUGC (chemistry not given here; listed as Homo sapiens) [CR000945] | 32.3% | 2.2% | 2.3%
AAGGUUCAGAUCAGAAGAGG (chemistry not given here; listed as Homo sapiens) [CR000921] | 58.3% | 11.3% | 12.7%
ACAAGUGCCCACAGGAAGCC (chemistry not given here; listed as Homo sapiens) [CR000930] | 12.2% | 7.1% | 9.9%
ACCAACUCACACAUACAGCC (chemistry not given here; listed as Homo sapiens) [CR000949] | 30.2% | 2.5% | 2.5%
ACCAGAGAUGUCUGUGCAGG (targeting domain within guide RNA, chemistry not given here, further chemistry not given here; listed as Homo sapiens) [CR000935] | 54.2% |  | 
ACCCGGCCACUUUCAGGAGG (chemistry not given here; listed as Homo sapiens) [CR000989] | 54.5% | 18.2% | 28.2%
AGAGCAACAGUGCUGUGGCC (chemistry not given here; listed as Homo sapiens) [CR000970] | 13.4% | 9.3% | 10.9%
AGAGUGAUUAUUAUUUAUUC (chemistry not given here; listed as Homo sapiens) [CR000941] | 33.4% | 7.6% | 9.6%
AGCAGCUUUCACCUCCUUGG (chemistry not given here; listed as Homo sapiens) [CR001009] | 65.3% | 22.8% | 27.3%
AGGAAGGAGCGAGGGAGCAC (chemistry not given here; listed as Homo sapiens) [CR000996] | 52.3% | 8.6% | 11.1%
AGGCUUCUCACCCUGCAGCA (chemistry not given here; listed as Homo sapiens) [CR000923] | 67.4% | 32.7% | 37.3%
AGUUGGUGGCAUUGCCGGGG (chemistry not given here; listed as Homo sapiens) [CR001015] | 35.9% | 20.4% | 21.8%
AUAUGUGCAGCUCAGGGUCA (chemistry not given here; listed as Homo sapiens) [CR000937] | 50.9% | 10.8% | 15.8%
AUCCUCCUCCUGAAAGUGGC (chemistry not given here; listed as Homo sapiens) [CR000987] | 39.6% | 18.2% | 20.6%
CAAUGCAGAGGAAGGAGCGA (chemistry not given here; listed as Homo sapiens) [CR000997] | 11.6% | 6.4% | 6.7%
CACACCUCUUGUCUUUGGAA (chemistry not given here; listed as Homo sapiens) [CR000954] | 22.3% | 2.6% | 2.7%
CACCAAAGCUGCCCUUACCU (chemistry not given here; listed as Homo sapiens) [CR000977] | 80.6% | 35.7% | 44.2%
CCACUUUCAGGAGGAGGAUU (chemistry not given here; listed as Homo sapiens) [CR000986] | 68.6% | 14.8% | 36.4%
CCAGGGCAUGCCAUGCUCAC (chemistry not given here; listed as Homo sapiens) [CR000928] | 54.2% | 14.6% | 18.1%
CCUGUGAGCAUGGCAUGCCC (chemistry not given here; listed as Homo sapiens) [CR000927] | 68.7% | 22.6% | 23.8%

Sequence | mean % edit [1] | mean FS edit (%) [2] | mean total % edit [2]
CUACCACCUCUGUGCCCCCC (chemistry not given here; listed as Homo sapiens) [CR001012] | 64.5% | 22.9% | 31.5%
CUGACAGGUUUUGAAAGUUU (chemistry not given here; listed as Homo sapiens) [CR000981] | 70.0% | 25.1% | 37.6%
CUGGGGAAGAAGGUGUCUUC (chemistry not given here; listed as Homo sapiens) [CR000973] | 39.7% | 12.4% | 16.2%
CUUCAAGAGCAACAGUGCUG (chemistry not given here; listed as Homo sapiens) [CR000969] | 34.0% | 20.9% | 24.8%
GAGAAUCAAAAUCGGUGAAU (chemistry not given here; listed as Homo sapiens) [CR000964] | 51.2% | 23.5% | 27.0%
GAGGCUUCUCACCCUGCAGC (chemistry not given here; listed as Homo sapiens) [CR000922] | 37.8% | 5.0% | 6.4%
GAGUUCCCUCUGUUUGGAGA (chemistry not given here; listed as Homo sapiens) [CR001004] | 47.2% | 6.4% | 6.7%
GCAAUGCAGAGGAAGGAGCG (chemistry not given here; listed as Homo sapiens) [CR000998] | 4.3% | 2.2% | 2.4%
GCAGCAGGGACCUGUGAGCA (chemistry not given here; listed as Homo sapiens) [CR000926] | 73.0% | 19.9% | 22.5%
GCAUUGCCGGGGGGGCACAG (chemistry not given here; listed as Homo sapiens) [CR001014] | 52.7% | 24.3% | 27.3%
GCCUCCUGCACAGACAUCUC (targeting domain within guide RNA, chemistry not given here, further chemistry not given here; listed as Homo sapiens) [CR000936] | 59.7% |  | 
GCUGUAUGUGUGAGUUGGUG (chemistry not given here; listed as Homo sapiens) [CR000948] | 84.5% | 18.4% | 20.3%
GCUUUCACCUCCUUGGGGGU (chemistry not given here; listed as Homo sapiens) [CR001008] | 13.6% | 4.5% | 5.1%
GGAAACACACCUCUUGUCUU (chemistry not given here; listed as Homo sapiens) [CR000953] | 66.0% | 14.4% | 17.7%
GGUGUCAUAUGUGCAGCUCA (chemistry not given here; listed as Homo sapiens) [CR000938] | 55.0% | 12.5% | 13.9%
GUAGCAGCUUUCACCUCCUU (chemistry not given here; listed as Homo sapiens) [CR001011] | 64.8% | 10.8% | 13.2%
GUAGGAGAGUUCCCUCUGUU (chemistry not given here; listed as Homo sapiens) [CR001006] | 56.8% | 10.4% | 13.6%
UAAACCCGGCCACUUUCAGG (chemistry not given here; listed as Homo sapiens) [CR000990] | 63.7% | 25.3% | 36.1%
UAAAUAAUAAUCACUCUCAC (chemistry not given here; listed as Homo sapiens) [CR000940] | 55.0% | 14.4% | 22.1%
UAGCAGCUUUCACCUCCUUG (chemistry not given here; listed as Homo sapiens) [CR001010] | 48.3% | 18.6% | 21.2%
UAGGCAGACAGACUUGUCAC (chemistry not given here; listed as Homo sapiens) [CR000963] | 68.4% | 25.3% | 32.5%
UAUUCUUGUGCUCUCAGAGA (chemistry not given here; listed as Homo sapiens) [CR000952] | 57.9% | 5.6% | 5.8%
